# According to patent US8324245B2, “Quinoline derivative and quinazoline derivative inhibiting self-phosphorylation of hepatocytus proliferator receptor, and medicinal composition containing the same” (Kyowa Hakko Kirin Co., Ltd., priority 2001, dated 2012):
# Biological target: T1, met (HGF receptor) in human gastric cancer cells MKN45 (Homo sapiens, UniProt P08581)
# T1 construct: endogenous in cells; host or cells: MKN45 human gastric cancer cells
# Test: Inhibitory activity against met-autophosphorylation using ELISA method (2), MKN45 cells, HGF-independent
# Type: cell-based
# Procedure, shortened: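 Met autophosphorylation was read by sandwich ELISA: phosphotyrosine capture (PY20), anti-HGF receptor detection, peroxidase read-out at 450 nm. Lysates came from MKN45 gastric cancer cells kept in 0.1% FCS RPMI and treated 1 h at 37 °C with test compound, with no added HGF.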
# T1 sequence (P08581 25-1390): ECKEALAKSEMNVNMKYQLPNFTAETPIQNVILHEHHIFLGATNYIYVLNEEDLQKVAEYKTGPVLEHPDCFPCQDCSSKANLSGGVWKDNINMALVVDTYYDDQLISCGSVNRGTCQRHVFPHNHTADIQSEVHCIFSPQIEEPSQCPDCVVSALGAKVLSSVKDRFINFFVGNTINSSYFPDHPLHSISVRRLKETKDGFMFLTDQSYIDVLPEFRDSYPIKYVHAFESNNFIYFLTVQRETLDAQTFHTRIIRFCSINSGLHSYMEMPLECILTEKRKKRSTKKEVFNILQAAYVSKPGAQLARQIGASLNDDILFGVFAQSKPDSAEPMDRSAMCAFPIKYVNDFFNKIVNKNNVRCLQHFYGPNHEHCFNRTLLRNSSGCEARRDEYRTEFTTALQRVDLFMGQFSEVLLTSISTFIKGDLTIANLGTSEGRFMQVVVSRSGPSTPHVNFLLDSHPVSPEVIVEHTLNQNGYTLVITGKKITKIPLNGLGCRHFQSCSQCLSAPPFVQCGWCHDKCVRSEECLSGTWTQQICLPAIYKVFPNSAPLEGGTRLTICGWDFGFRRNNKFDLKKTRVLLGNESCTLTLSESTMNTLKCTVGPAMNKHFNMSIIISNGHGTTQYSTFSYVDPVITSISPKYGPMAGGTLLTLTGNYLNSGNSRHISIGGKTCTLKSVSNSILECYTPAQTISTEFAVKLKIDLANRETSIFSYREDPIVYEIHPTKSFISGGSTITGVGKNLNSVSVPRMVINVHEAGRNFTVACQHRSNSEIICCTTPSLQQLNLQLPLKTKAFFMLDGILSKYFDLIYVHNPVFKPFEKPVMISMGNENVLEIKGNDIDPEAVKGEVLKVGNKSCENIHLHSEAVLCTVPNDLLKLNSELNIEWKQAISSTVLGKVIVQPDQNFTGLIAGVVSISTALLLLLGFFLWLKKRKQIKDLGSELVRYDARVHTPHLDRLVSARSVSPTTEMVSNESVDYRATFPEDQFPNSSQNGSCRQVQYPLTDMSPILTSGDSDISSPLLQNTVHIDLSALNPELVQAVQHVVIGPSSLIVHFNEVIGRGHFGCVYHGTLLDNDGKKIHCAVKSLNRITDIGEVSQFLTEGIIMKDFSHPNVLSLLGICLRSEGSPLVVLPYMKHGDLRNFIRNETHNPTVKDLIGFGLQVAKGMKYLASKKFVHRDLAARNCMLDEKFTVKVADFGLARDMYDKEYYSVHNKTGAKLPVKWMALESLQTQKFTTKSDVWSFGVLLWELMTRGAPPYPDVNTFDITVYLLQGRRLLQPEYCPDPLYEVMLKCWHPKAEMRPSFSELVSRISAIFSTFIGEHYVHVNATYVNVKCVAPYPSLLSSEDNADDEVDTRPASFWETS
row,IC50 [nM],Structure (SMILES)
1,248,"COc1cccc(CC(=O)NC(=S)Nc2ccc(Oc3ccnc4cc(OC)c(OC)cc34)cc2F)c1 [Example 185, 1-[4-(6,7-dimethoxyquinolin-4-yloxy)-2-fluorophenyl]-3-[2-(3-methoxyphenyl)acetyl]thiourea]"
2,2080,"COc1cc2nccc(Oc3ccc(NC(=O)NC(=O)c4ccccc4C)c(F)c3)c2cc1OC [Example 108, 1-[4-(6,7-dimethoxyquinolin-4-yloxy)-2-fluorophenyl]-3-(2-methyl-benzoyl)urea]"
3,140,"COc1cc2nccc(Oc3ccc(NC(=O)NC(=O)Cc4ccccc4F)cc3)c2cc1OC [Example 25, 1-[4-(6,7-dimethoxyquinolin-4-yloxy)phenyl]-3-[2-(2-fluorophenyl)acetyl]urea]"
4,140,"COc1cc2nccc(Oc3ccc(NC(=S)NC(=O)CCc4ccccc4C)cc3F)c2cc1OC [Example 64, 1-[4-(6,7-dimethoxyquinolin-4-yloxy)-3-fluoro-phenyl]-3-(3-o-tolylpropionyl)thiourea]"
5,276,"COc1ccccc1CC(=O)NC(=S)Nc1ccc(Oc2ccnc3cc(OC)c(OC)cc23)cc1F [Example 169, 1-[4-(6,7-dimethoxyquinolin-4-yloxy)-2-fluorophenyl]-3-[2-(2-methoxyphenyl)acetyl]thiourea]"
6,301,"COc1cc2nccc(Oc3ccc(NC(=O)NC(=O)Nc4ccccc4F)cc3)c2cc1OC [Example 252, N-(2-fluorophenyl)-({[4-(6,7-dimethoxy-quinolin-4-yloxy)anilino]carbonyl}amino)methanamide]"
7,178,"COc1cc2nccc(Oc3ccc(NC(=S)NC(=O)Cc4cccc(C)c4)cc3)c2cc1OC [Example 77, 1-[4-(6,7-dimethoxyquinolin-4-yloxy)phenyl]-3-(2-m-tolylacetyl)thiourea]"
8,202,"COc1cc2nccc(Oc3cc(C)c(NC(=S)NC(=O)Cc4ccccc4)cc3C)c2cc1OC [Example 163, 1-[4-(6,7-dimethoxyquinolin-4-yloxy)-2,5-dimethylphenyl]-3-phenylacetylthiourea]"
9,442,"COc1cc2nccc(Oc3ccc(NC(=O)NC(=O)CN4CCCc5cc(C)ccc54)c(F)c3)c2cc1OC [Example 119, 1-[4-(6,7-dimethoxyquinolin-4-yloxy)-2-fluorophenyl]-3-[2-(6-methyl-3,4-dihydro-2H-quinolin-1-yl)acetyl]urea]"
10,447,"COc1cc2nccc(Oc3ccc(NC(=O)NC(=O)Nc4ccc(F)cc4Cl)cc3)c2cc1OC [Example 250, N-(2-chloro-4-fluorophenyl)-({[4-(6,7-dimethoxyquinolin-4-yloxy)anilino]carbonyl}amino)-methanamide]"
11,23,"CCN(CC)CCOc1cc2nccc(Oc3ccc(NC(=S)NC(=O)Cc4ccc(F)cc4)cc3F)c2cc1OC [Example 275, 1-{4-[7-(2-Diethylamino-ethoxy)-6-methoxy-quinolin-4-yloxy]-3-fluoro-phenyl}-3-[2-(4-fluoro-phenyl)-acetyl]-thiourea]"
12,252,"COc1cc2nccc(Oc3ccc(NC(=S)NC(=O)Cc4ccc(Cl)cc4)c(F)c3)c2cc1OC [Example 188, 1-[2-(4-chlorophenyl)acetyl]-3-[4-(6,7-dimethoxyquinolin-4-yloxy)-2-fluorophenyl]thiourea]"
13,243,"COc1cccc(CC(=O)NC(=S)Nc2ccc(Oc3ccnc4cc(OC)c(OC)cc34)c(F)c2)c1 [Example 181, 1-[4-(6,7-dimethoxyquinolin-4-yloxy)-3-fluorophenyl]-3-[2-(3-methoxyphenyl)acetyl]thiourea]"
14,955,"COc1cc2nccc(Oc3ccc(NC(=S)NC(=O)Cc4cccc(C)c4)c(F)c3)c2cc1OC [Example 175, 1-[4-(6,7-dimethoxyquinolin-4-yloxy)-2-fluorophenyl]-3-(2-m-tolylacetyl)thiourea]"
15,198,"COc1cc2nccc(Oc3ccc(NC(=S)NC(=O)Cc4ccccc4Cl)cc3F)c2cc1OC [Example 87, 1-[2-(2-chlorophenyl)acetyl]-3-[4-(6,7-dimethoxyquinolin-4-yloxy)-3-fluorophenyl]thiourea]"

# Continued, compound first:
row,Structure (SMILES),IC50 [nM]
1,"COc1cc2nccc(Oc3ccc(NC(=O)NC(=O)CN4CCCC4)cc3Cl)c2cc1OC [Example 111, 1-[3-chloro-4-(6,7-dimethoxyquinolin-4-yloxy)phenyl]-3-(2-pyrrolidin-1-ylacetyl)urea]",1810
2,"COc1cc2c(Oc3ccc(NC(=S)NC(=O)Cc4ccc(C)cc4)cc3F)ccnc2cc1OCCCN1CCOCC1 [Example 304, 1-{3-Fluoro-4-[6-methoxy-7-(3-morpholin-4-yl-propoxy)-quinolin-4-yloxy]-phenyl}-3-(2-p-toluyl-acetyl)-thiourea]",65.9
3,"COc1cc2nccc(Oc3ccc(NC(=O)NC(=O)Nc4ccc([N+](=O)[O-])cc4)cc3)c2cc1OC [Example 254, N-(4-nitrophenyl)-({[4-(6,7-dimethoxy-quinolin-4-yloxy)anilino]carbonyl}amino)methanamide]",365
4,"COc1cc2nccc(Oc3ccc(NC(=O)NC(=O)Nc4ccccc4Cl)cc3)c2cc1OC [Example 248, N-(2-chlorophenyl)-({[4-(6,7-dimethoxy-quinolin-4-yloxy)anilino]carbonyl}amino)methanamide]",957
5,"COc1cc2c(Oc3ccc(NC(=S)NC(=O)Cc4ccccc4F)cc3F)ccnc2cc1OCC(O)CN1CCCCC1 (stereo not drawn) [Example 318, 1-(3-Fluoro-4-[7-(2-hydroxy-3-piperidin-1-yl-propoxy)-6-methoxy-quinolin-4-yloxy]-phenyl)-3-[2-(2-fluoro-phenyl)-acetyl]-thiourea]",28.3
6,"COc1cc2nccc(Oc3ccc(NC(=O)NC(=O)Nc4ccccc4CCO)cc3)c2cc1OC [Example 267, N-[2-(2-hydroxyethyl)phenyl]-({[4-(6,7-dimethoxyquinolin-4-yloxy)anilino]carbonyl}amino)-methanamide]",109
7,"COc1cc2c(Oc3ccc(NC(=O)NC(=O)Cc4ccccc4)cc3F)ccnc2cc1O [Example 106, N-{3-Fluoro-4-[(7-hydroxy-6-methoxy-4-quinolyl)-oxy]phenyl}-N′-(2-phenylacetyl)urea]",42.7
8,"COc1cc2nccc(Oc3ccc(NC(=O)CC(=O)NC4CCC4)cc3)c2cc1OC [Example 212, N-cyclobutyl-N′-[4-(6,7-dimethoxyquinolin-4-yloxy)phenyl]malonamide]",379
9,"COc1cc2nccc(Oc3ccc(NC(=O)C(C)C(=O)NC4CCCCC4)cc3)c2cc1OC (stereo not drawn) [Example 226, N-cyclohexyl-N′-[4-(6,7-dimethoxyquinolin-4-yloxy)phenyl]-2-methylmalonamide]",3230
10,"COc1cc2c(Oc3ccc(NC(=O)NC(=O)Cc4ccc(F)cc4)cc3F)ccnc2cc1OCCN1CCOCC1 [Example 55, 1-{3-fluoro-4-[6-methoxy-7-(2-morpholin-4-yl-ethoxy)quinolin-4-yloxy]phenyl}-3-[2-(4-fluorophenyl)-acetyl]urea]",245
11,"COc1cc2nccc(Oc3ccc(NC(=O)CC(=O)NC4CCCCCC4)cc3)c2cc1OC [Example 101, N-cycloheptyl-N′-[4-(6,7-dimethoxyquinolin-4-yloxy)phenyl]malonamide]",44.4
12,"COc1cc2nccc(Oc3cc(C)c(NC(=O)CC(=O)Nc4ccc(F)cc4F)cc3C)c2cc1OC [Example 224, N-(2,4-difluorophenyl)-N′-[4-(6,7-dimethoxy-quinolin-4-yloxy)-2,5-dimethylphenyl]malonamide]",316
